{
  "source": "paper PMC7343746",
  "about": "“(2S, 4R)-4-[^18F]Fluoroglutamine for In vivo PET Imaging of Glioma Xenografts in Mice: an Evaluation of Multiple Pharmacokinetic Models” (Molecular Imaging and Biology, 2020)",
  "origin": "cited, not measured here",
  "tested_on": "alanine aminotransferase",
  "set-up": "method as in PMID 22613816",
  "details": "cited from earlier work",
  "data": [
    {"smiles": "N[C@@H](C[C@@H]([18F])C(=O)O)C(=O)O", "note": "[(2S, 4R)-4-[^18F]fluoroglutamate]", "values": [
      {"measurement": "Efficiency of processing and defluorination versus non-fluorinated natural counterpart", "result": 5.6, "unit": "times"}
    ]}
  ]
}
